Laboratory results from ChEMBL document CHEMBL2440025, “Bacterial neuraminidase inhibitory effects of prenylated isoflavones from roots of Flemingia philippinensis” (Bioorg Med Chem, 2013).

Experiments:
[1] = biological target: T1, Sialidase (Clostridium perfringens, UniProt P10481); assay: Non-competitive inhibition of Clostridium perfringens neuraminidase using 4-methylumbelliferyl-alpha-D-N-acetylneuraminic acid sodium salt hydrate as substrate by Dixon plot method
T1 sequence (P10481 whole entry): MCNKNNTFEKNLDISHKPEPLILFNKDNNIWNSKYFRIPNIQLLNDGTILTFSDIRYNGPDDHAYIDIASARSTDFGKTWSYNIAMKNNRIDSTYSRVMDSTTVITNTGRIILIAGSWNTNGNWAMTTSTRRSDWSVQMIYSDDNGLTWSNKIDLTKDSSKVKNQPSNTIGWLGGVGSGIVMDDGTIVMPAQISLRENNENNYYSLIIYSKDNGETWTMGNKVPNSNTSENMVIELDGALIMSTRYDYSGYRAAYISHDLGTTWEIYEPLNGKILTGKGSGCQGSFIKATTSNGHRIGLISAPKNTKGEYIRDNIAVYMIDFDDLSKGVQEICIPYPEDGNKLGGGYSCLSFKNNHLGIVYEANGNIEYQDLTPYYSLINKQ

[2] = biological target: T2, Sialidase (Clostridium perfringens) (UniProt P10481); assay: (§1) Inhibition of Clostridium perfringens neuraminidase using 4-methylumbelliferyl-alpha-D-N-acetylneuraminic acid sodium salt hydrate as substrate by fluorimetry
T2 sequence (whole entry): T1 sequence (P10481 whole entry)

[3] = biological target: T1, Sialidase; assay: as §1

Row | Structure (SMILES) | Ki [1] [µM] | inhibition [2] | IC50 [3] [µM]
1 | CC(C)=CCc1cc(-c2coc3cc(O)cc(O)c3c2=O)c(CC=C(C)C)c(O)c1O | 7.86 | Dose-dependent effect | 7.85
2 | CC(C)=CCc1c(O)c(CC=C(C)C)c2occ(-c3ccc(O)c(O)c3)c(=O)c2c1O | 1.02 | Dose-dependent effect | 1.07
3 | COc1cc(-c2coc3c(CC=C(C)C)c(O)c(CC=C(C)C)c(O)c3c2=O)ccc1O [FLEMINGSIN] | 3.68 | Dose-dependent effect | 3.75
4 | CC(C)=CCc1c(-c2coc3cc(O)cc(O)c3c2=O)cc2c(c1O)OC(C)(C)C=C2 | 53 | Dose-dependent effect | 56.8
5 | C=CC(C)(C)C1=Cc2c(c(CC=C(C)C)c3occ(-c4ccc(O)c(O)c4)c(=O)c3c2O)OC1(C)C | 1.36 | Dose-dependent effect | 1.63
6 | CC(C)=CCc1c2c(c(O)c3c(=O)c(-c4ccc(O)c(O)c4)coc13)C=CC(C)(C)O2 [AURICULASIN] | 0.13 | Dose-dependent effect | 0.3
7 | CC(C)=CCc1c2c(c3occ(-c4ccc(O)cc4)c(=O)c3c1O)C=CC(C)(C)O2 [OSAJIN] | 3.21 | Dose-dependent effect | 3.06
8 | C=CC(C)(C)C1=Cc2c(c(CC=C(C)C)c3occ(-c4ccc(O)cc4)c(=O)c3c2O)OC1(C)C | 7.27 | Dose-dependent effect | 7.9
9 | CC(C)=CCc1c(O)c(CC=C(C)C)c2occ(-c3ccc(O)cc3)c(=O)c2c1O | 4.29 | Dose-dependent effect | 4.04
10 | O=c1c(-c2ccc(O)cc2)coc2cc(O)cc(O)c12 [GENISTEIN] | – | – | 12
